The values that follow come from publication PMC10269878 (Microbiology Spectrum, 2023).

The conditions of data set [1]: mouse, in vivo.
For another data set, the system named is melioidosis. As to conditions: in vivo; cited from earlier work.
A further data set can be described thus: in vivo. As to conditions: mouse, po, 100 mg/kg.

Molecules are shown by their SMILES.

Take `C[C@H]1c2cccc(O)c2C(=O)C2=C(O)[C@]3(O)C(=O)C(C(N)=O)=C(O)[C@@H](N(C)C)[C@@H]3[C@@H](O)[C@@H]21` [Doxycycline, doxycycline monohydrate]: in data set [1], the “Doxycycline Absorption (ka)” value worked out at 1.68 h⁻¹. Moreover, the “Efficacy alone to clear melioidosis” value with melioidosis is “ineffective alone to clear melioidosis”. In addition, in the data set “in vivo”, the AUC(0-t) stood at 12700 ng·h/mL, the Tmax was determined as 1.24 h, the half-life was 2.56 h and the k el is 7.5e-05 s⁻¹.

Broadly, the AUC(0-t) is exposure summed from dosing to a finite time, without extrapolation to infinity. A high value points to high exposure. By Tmax is commonly meant the time from dosing to the highest level. A word on the half-life: it is the time in which the quantity being followed falls by half. Higher therefore signals slow loss.
